This is an account of results in patent US11485720B2, “Anti-infective agents” (University of Dundee, priority 2016, dated 2022).

Several values for one entry are separate records, joined by “and”; a condition that tells them apart may be missing. Equal entries are not always repeated. Structures can show the parent of a compound that is named as a salt.

One assay has as its system Cryptosporidium parvum. As to the kind of experiment: In vitro Crytosporidium inhibition assay. The class given is cell-based. Particulars: Cryptosporidium parvum; read-out: Cryptosporidium parvum pEC50 (converted). The text has this: Assay Method for Measurement of In Vitro Inhibition of Crytosporidium.
These experiments were run in accordance with the method of Besssoff et. al. Antimicrob. Agents Chemother. 2013, 57:1804-1814. Results from these experiments are provided in the Experimental Results hereinafter.

Assay [1] relates to Plasmodium falciparum strain 3D7. Briefly: Plasmodium falciparum 3D7 in vitro growth inhibition (SYBRgreen I). The conditions noted are these: for EC50: Plasmodium falciparum, 3D7, read-out: pEC50 for Pf 3D7 (converted). It is filed as cell-based. On the procedure:
Parasite Cultures and Cytotoxicity Assay Methodology for Plasmodium falciparum. […] Growth inhibition of the Plasmodium falciparum cultures was quantified in a 10-point dose response curve with a 1 in 3 dilution series from a top assay concentration of 50 μM. This 384 well plate based fluorescence assay utilises the binding of SYBRgreen I (Thermo Fisher Scientific/Invitrogen cat. no. S7585) to double stranded DNA, which greatly increases the fluorescent signal at 528 nm after excitation at 485 nm. Mefloquine was used as a drug control to monitor the quality of the assay (Z′=0.6 to 0.8, where Z′ is a measure of the discrimination between the positive and negative controls on a screen plate). Dose-response curves were determined from a minimum of 3 independent experiments. Compound bioactivity was expressed as EC50, the effective concentration of compound causing 50% parasite death.

The target of assay [2] is T1, Plasmodium falciparum lysyl t-RNA synthetase (Pf-KRS1) (Plasmodium falciparum, UniProt Q8IDJ8).
T1 construct: Pf KRS1-; made in house; host or cells: E. coli BL21 (DE3)
T1 sequence (Q8IDJ8 entry or part of it, looked up, natural form): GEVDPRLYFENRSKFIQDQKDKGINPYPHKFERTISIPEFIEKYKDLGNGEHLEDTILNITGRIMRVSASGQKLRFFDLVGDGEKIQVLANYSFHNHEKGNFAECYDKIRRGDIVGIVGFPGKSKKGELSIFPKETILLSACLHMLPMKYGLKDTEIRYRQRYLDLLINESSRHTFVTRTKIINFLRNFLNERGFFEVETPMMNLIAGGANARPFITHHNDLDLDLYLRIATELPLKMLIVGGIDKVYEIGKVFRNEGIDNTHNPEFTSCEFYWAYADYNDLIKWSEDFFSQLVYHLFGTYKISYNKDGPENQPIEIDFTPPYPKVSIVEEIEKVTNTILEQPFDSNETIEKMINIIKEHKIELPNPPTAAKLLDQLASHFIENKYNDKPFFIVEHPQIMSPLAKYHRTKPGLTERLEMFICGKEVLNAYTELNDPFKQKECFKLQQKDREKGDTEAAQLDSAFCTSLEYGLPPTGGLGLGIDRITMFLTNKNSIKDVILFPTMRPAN
As to the kind of experiment: Pf-KRS1 inhibition biochemical assay (Kinase-Glo, ATP depletion). The conditions noted are these: read-out: Pf-KRS pIC50 (converted). From the text: Plasmodium falciparum Lysine tRNA Synthetase (KRS1) Biochemical Assay Methodology.
Lysine tRNA Synthetase (KRS1) is an enzyme which catalyses the esterification of L-Lysine to the appropriate transfer ribonucleic acid (tRNA), to form an aminoacyl-tRNA. Once the tRNA is charged, a ribosome transfers the amino acid from the tRNA onto a growing peptide, according to the genetic code.
The substrates of this reaction are L-lysine, and adenosine triphosphate (ATP), the overall reaction is: amino acid+tRNA+ATP→aminoacyl-tRNA+AMP+PPi
In this overall reaction AMP is adenosine monophosphate and PP; is inorganic pyrophosphate. The reaction progression in a biochemical assay can be tracked by the depletion of one of the substrates, in the case of this invention, ATP. This was done using the proprietary assay kit, Kinase Glo® Assay which is a luminescent kinase assay platform suitable for monitoring kinase activities using up to 10 μm ATP which is commercially available from the Promega Corporation of Madison, Wis., USA. The Kinase-Glo® Assay was performed in a single well of a multiwell plate by adding a volume of Kinase-Glo® Reagent equal to the volume of a completed kinase reaction and measuring luminescence. The resulting luminescent signal is correlated with the amount of ATP present and is inversely correlated with the amount of kinase activity. As such by use of this assay methodology a reduction of the luminescent signal is relative to the reduction in ATP as the reaction progresses. A compound which inhibits the action of KRS will show no drop in the luminescent signal from assay controls.
Assays were performed using both Plasmodium falciparum and human KRS to assess any selectivity of various test compounds.
Test compounds were solubilized in DMSO at a top concentration of 10 mM and serially diluted 1 in 3 to achieve a range of final assay concentrations of 50 μM to 2.5 nM in 10 μl reaction volume.
KRS was diluted to a working concentration of 75 nM in assay buffer (25 mM HEPES, 25 mM KOH, 10 mM MgCl2.6H2O, 50 mM KCl), and the following ‘Master Mix’ prepared in assay buffer: 0.1 mg/ml BSA, 250 μM DTT, 200 μM Spermine, 0.05% NP-40, ATP 3 μM for Pf KRS1 (4 μM for Hs KRS1), 0.4 mg/ml tRNA from Yeast, 60 μM L-Lysine, 0.5 U/ml Pyrophosphatase.
Plates were incubated at room temperature for 5 h for Pf KRS (2.5 hrs for HsKRS), then the assay stopped by the addition of 10 μl of The Kinase-Glo® Reagent Assay was performed in a single well of a multiwell plate by adding a volume of Kinase-Glo® Reagent which is commercially available from the Promega Corporation of Madison, Wis., USA. The plates were incubated in the dark for a further 15 mins before being read for luminescence on a BMG PHERAstar® FSX plate reader which is a multi-mode reader for use in high-throughput screening available from BMG Labtech if Cary, N.C., USA. Data were analysed by calculating the percentage inhibition compared to the maximum and minimum assay controls. Concentration effect curves were fitted using nonlinear regression within ActivityBase and IC50 values were determined using standard protocols.
In general terms: Kinase-Glo measures the ATP left after a reaction by luminescence.

In another assay the test system is Hep G2. Briefly: Hep G2 in-vitro cytotoxicity assay. Particulars: Homo sapiens, HepG2, read-out: Hs HEPG2 pEC50 (converted). It is filed as cell-based. The text has this:
In-vitro cytotoxicity studies can be carried out using Hep G2 (Human hepatocyte carcinoma, HPACC cat. no. 85011430) used as indicators for general mammalian cell toxicity. Hep G2 in-vitro cytotoxicity can be assessed using the assay procedure as described in “Use of a human-derived liver cell line for the detection of cytoprotective, antigenotoxic and cogenotoxic agents”, Volker Mersch-Sundermann, Siegfried Knasmüller, Xin-jiang Wu, Firouz Darroudi, Fekadu Kassie. J. Tox 198 (2004) 329-340) the contents of which are incorporated herein by reference.

On to `COc1cc2c(=O)cc(C(=O)NCC3CCCCC3)oc2cc1F` [Example 71, N-(cyclohexylmethyl)-7-fluoro-6-methoxy-4-oxo-4H-chromene-2-carboxamide], for which the EC50 with Cryptosporidium parvum is 3980 nM; in assay [1] it was 3160 nM. Moreover, in assay [2], the IC50 is 398 nM.

Consider `Nc1c(F)ccc2c(=O)cc(C(=O)NCC3(O)CCC(F)(F)CC3)oc12` [Example 92, 8-Amino-N-[(4,4-difluoro-1-hydroxy-cyclohexyl)methyl]-7-fluoro-4-oxo-chromene-2-carboxamide], for which the EC50 in assay [1] is 79.4 nM.

Regarding `O=C(NCC1(CCO)CCCCC1)c1cc(=O)c2cc(F)ccc2o1` [Example 40A, 6-Fluoro-N-((1-(2-hydroxyethyl)cyclohexyl)methyl)-4-oxo-4H-chromene-2-carboxamide], the results for the EC50 (with Hep G2; in assay [1]) were 50100 nM and 200 nM, respectively. The IC50 in assay [2] was 200 nM.

As to `O=C(NCCC1CCCC1)c1cc(=O)c2ccccc2o1` [Example 26, N-(2-cyclopentylethyl)-4-oxo-chromene-2-carboxamide], the EC50 is 10000 nM in the assay on Cryptosporidium parvum and 6310 nM in assay [1]. In assay [2], the IC50 was 501 nM.

For `O=C(NCC1CCCCC1)c1cc(=O)c2cccc(F)c2o1` [Example 8, N-(cyclohexylmethyl)-8-fluoro-4-oxo-chromene-2-carboxamide], in the assay on Hep G2, the EC50 is 50100 nM.

Turning to `Nc1cc(F)cc2c(=O)cc(C(=O)NCC3(F)CCCCC3)oc12` [Example 97, 8-amino-6-fluoro-N-[(1-fluorocyclohexyl)methyl]-4-oxo-4H-chromene-2-carboxamide], the values for the EC50 (in the assay on Hep G2; in assay [1]) were 20000 nM and 39.8 nM, respectively.

With `CCOC(=O)CC1(CNC(=O)c2cc(=O)c3cc(F)ccc3o2)CCCCC1` [Example 57K, Ethyl 2-(1-((6-fluoro-4-oxo-4H-chromene-2-carboxamido)methyl)cyclohexyl)acetate], the IC50 in assay [2] was 316 nM.

Consider `O=C(NCC1CCCCO1)c1cc(=O)c2cc(F)ccc2o1` (stereo not shown) [Example 32, 6-fluoro-4-oxo-N-(tetrahydropyran-2-ylmethyl)chromene-2-carboxamide], for which the EC50 in assay [1] was 1580 nM. In addition, in assay [2], the IC50 was 398 nM and 794 nM.

In the case of `Cc1c(C(=O)NCC2CCCCC2)oc2ccc(F)cc2c1=O` [Example 91, N-(cyclohexylmethyl)-6-fluoro-3-methyl-4-oxo-4H-chromene-2-carboxamide], in the assay on Cryptosporidium parvum, the EC50 was 2510 nM. Also, in assay [1], the “pEC50 for Pf 3D7” value came to 5.2 and the EC50 is 5010 nM. In addition, the IC50 in assay [2] was 631 nM.

With `CCc1ccc2oc(C(=O)NCC3(O)CCCCC3)cc(=O)c2c1` [Example 45, 6-ethyl-N-[(1-hydroxycyclohexyl)methyl]-4-oxo-chromene-2-carboxamide], the EC50 in the assay on Hep G2 was 50100 nM.

For the compound `O=C(NC[C@@H]1CCCC[C@H]1O)c1cc(=O)c2cc(F)ccc2o1` [Example 57E, 6-Fluoro-N-(((1S,2R)-2-hydroxycyclohexyl)methyl)-4-oxo-4H-chromene-2-carboxamide], in the assay with Hep G2, the EC50 is 50100 nM.

In the case of `O=C(NCC1CCCCC1)c1cc(=O)c2cccc(OCCN3CCNCC3)c2o1` [Example 62, N-(cyclohexylmethyl)-4-oxo-8-(2-piperazin-1-ylethoxy)chromene-2-carboxamide dihydrochloride], the EC50 in the assay on Hep G2 was 50100 nM.

Take `COC(=O)c1cccc2c(=O)cc(C(=O)NCC3CCCCC3)oc12` [Example 87, Methyl 2-((cyclohexylmethyl)carbamoyl)-4-oxo-4H-chromene-8-carboxylate]: the EC50 in the assay on Hep G2 is 25100 nM; in assay [1], 126 nM.

With `Nc1cc(F)cc2c(=O)cc(C(=O)NC[C@H]3CC[C@H](O)CC3)oc12` [Example 98, 8-amino-6-fluoro-N-[(4-hydroxycyclohexyl)methyl]-4-oxo-chromene-2-carboxamide], the EC50 in the assay with Hep G2 was 50100 nM; in assay [1] it was 631 nM.

In the case of `CS(=O)(=O)Nc1cccc2c(=O)cc(C(=O)NCC3(O)CCCCC3)oc12` [Example 84A, N-[(1-hydroxycyclohexyl)methyl]-8-(methylsulfonamido)-4-oxo-4H-chromene-2-carboxamide], in the assay with Hep G2, the EC50 is 50100 nM.

On to `O=C(NCC1CCCCC1)c1cc(=O)c2cccc(CO)c2o1` [Example 82, N-(cyclohexylmethyl)-8-(hydroxymethyl)-4-oxo-chromene-2-carboxamide], for which the EC50 in the assay with Hep G2 is 50100 nM; in assay [1] it was 200 nM. For the same compound, the IC50 in assay [2] is 251 nM.

On to `Cc1c(C(=O)NCC2CCCCC2)oc2ccccc2c1=O` [Example 90, N-(cyclohexylmethyl)-3-methyl-4-oxo-4H-chromene-2-carboxamide], for which, in assay [1], the EC50 is 5010 nM. For the same compound, the IC50 in assay [2] was 1260 nM.

On to `O=C(NCC1(O)CCCC1)c1cc(=O)c2cc(F)cc(O)c2o1` [Example 76F, 6-fluoro-8-hydroxy-N-((1-hydroxycyclopentyl)methyl)-4-oxo-4H-chromene-2-carboxamide], for which the EC50 in assay [1] is 501 nM. The IC50 in assay [2] was 79.4 nM.

On to `O=C(NCC1CCCCC1)c1cc(=O)c2cccc(C(=O)O)c2o1` [Example 88, 2-((Cyclohexylmethyl)carbamoyl)-4-oxo-4H-chromene-8-carboxylic acid], for which the EC50 in the assay with Cryptosporidium parvum was 7940 nM.

As for `O=C(NCC1(O)CCC(F)(F)CC1)c1cc(=O)c2ccc(F)c(O)c2o1` [Example 80, N-((4,4-difluoro-1-hydroxycyclohexyl)methyl)-7-fluoro-8-hydroxy-4-oxo-4H-chromene-2-carboxamide], in the assay with Hep G2, the EC50 is 50100 nM. Further, the IC50 in assay [2] was 316 nM.

Consider `CS(=O)(=O)Nc1cc(F)cc2c(=O)cc(C(=O)NCC3CCCCC3)oc12` [Example 100, N-(cyclohexylmethyl)-6-fluoro-8-(methanesulfonamido)-4-oxo-chromene-2-carboxamide], for which the EC50 with Hep G2 was 50100 nM; in assay [1] it was 200 nM. Also, the IC50 in assay [2] was 158 nM.

Regarding `NC(=O)c1cccc2c(=O)cc(C(=O)NCC3CCCCC3)oc12` [Example 89, N2-(cyclohexylmethyl)-4-oxo-4H-chromene-2,8-dicarboxamide], the EC50 with Hep G2 is 50100 nM. In addition, the IC50 in assay [2] was 501 nM.

Regarding `Nc1cc(F)cc2c(=O)cc(C(=O)NCC3(O)CCCCC3)oc12` [Example 96, 8-amino-6-fluoro-N-[(1-hydroxycyclohexyl)methyl]-4-oxo-4H-chromene-2-carboxamide], in assay [1], the EC50 is 12.6 nM.

With `COc1cccc2c(=O)cc(C(=O)NCC3CCCCC3)oc12` [Example 66, N-(cyclohexylmethyl)-8-methoxy-4-oxo-4H-chromene-2-carboxamide], in assay [1], the EC50 was 2510 nM. In addition, in assay [2], the IC50 is 501 nM.
